Data published in patent US20040063681A1, “Methods for using gold (III) complexes as anti-tumor and anti-HIV agents” (priority 2002, published 2004).

Legend:
[1] = tested on: Human Promyelocytic Leukemia (HL-60); assay: MTT cytotoxicity, HL-60; format: cell-based; conditions: growth inhibition
From the text: (§1) Human promyelocytic leukemia (HL-60), human hepatocellular carcinoma (HepG2), Human cervix epitheloid carcinoma cells (HeLa) and human oral epidermoid carcinoma cells (KB-3-1), were obtained from American Type Culture Collection (ATCC) (Rockville, Md.). The multi-drug-resistant variant KB-V1 cell line was obtained by stepwise selections for vinblastine resistance as described by Shen et al., J. Biol. Chem. 261:7762-7770 (1986)], and was generously provided by Dr Michael Gottesman (NIH, Bethesda, Md.). Human nasopharyngeal carcinoma cells (SUNE1 and its cisplatin resistance variant, CNE1) were derived from poorly differentiated NPC in Chinese patients as described by Gu et al., Chin. J. Cancer 2:270-272 (1983), and were generously provided by Dr S. W. Tsao (The University of Hong Kong, Hong Kong, PRC). Cell culture flasks and 96 well microtitre plates were from Nalge Nunc hit. Culture medium, other medium constituents and phosphate buffered saline (PBS) were obtained from Gibco BRL (Rockville, Md.). Cell Proliferation Kit I (MTT) was purchased from Roche (Mannheim, Germany).
(§2) The anti-cancer activities of the gold(III) porphyrin complexes were evaluated toward some established human cancer cell lines: promyelocytic leukemia (HL-60), hepatocellular carcinoma (HepG2), cervix epitheloid carcinoma (HeLa), epidermoid carcinoma (KB-3-1) and its multi-drug resistant variant (KB-V1), nasopharyngeal carcinoma (SUNE1) and its cisplatin-resistant variant (CNE1). The experiments were carried out by following the MTT procedure (see Mosmann et al., J. Immunol. Methods 65:55-63 (1983). The IC50 values of the gold(III) porphyrin complexes together with that of cisplatin, and KAuCl4 are provided in Table 4a; and the IC50 values of the gold(III) Schiff-base and bis(pyridyl)carboxamide complexes are shown in Table 4b. The cytotoxicity profiles of some selected gold(III) porphyrin complexes toward SUNE1 and its cisplatin-resistant variant CNE1 are also shown in FIG. 7.

[2] = tested on: Human Nasopharyngeal Carcinoma (cisplatin resistance, CNE1); assay: MTT cytotoxicity, CNE1; format: cell-based; conditions: for IC50: MTT, growth inhibition, cisplatin resistant
From the text: (§3) Human promyelocytic leukemia (HL-60), human hepatocellular carcinoma (HepG2), Human cervix epitheloid carcinoma cells (HeLa) and human oral epidermoid carcinoma cells (KB-3-1), were obtained from American Type Culture Collection (ATCC) (Rockville, Md.). […] Cell culture flasks and 96 well microtitre plates were from Nalge Nunc hit. Culture medium, other medium constituents and phosphate buffered saline (PBS) were obtained from Gibco BRL (Rockville, Md.). Cell Proliferation Kit I (MTT) was purchased from Roche (Mannheim, Germany).

[3] = tested on: Human Oral Epidermoid Carcinoma (KB-3-1); assay: MTT cytotoxicity, KB-3-1; format: cell-based; conditions: for IC50: MTT, growth inhibition
From the text: as §3

[4] = tested on: Human Oral Epidermoid Carcinoma (multi-drug resistance, KB-V-1); assay: MTT cytotoxicity, KB-V-1; format: cell-based; conditions: for IC50: MTT, growth inhibition, multi-drug resistant
From the text: as §1
The anti-cancer activities of the gold(III) porphyrin complexes were evaluated toward some established human cancer cell lines: promyelocytic leukemia (HL-60), hepatocellular carcinoma (HepG2), cervix epitheloid carcinoma (HeLa), epidermoid carcinoma (KB-3-1) and its multi-drug resistant variant (KB-V1), nasopharyngeal carcinoma (SUNE1) and its cisplatin-resistant variant (CNE1).

[5] = Electrochemical measurements (cyclic voltammetry); format: physicochemical; conditions: for Couple I (first reduction couple) / Couple II (second reduction couple): cyclic voltammetry, 0.1 M nBu4NPF6, glassy carbon, vs Cp2Fe^+/0; for ΔE1o (E^0Y − E^0H), couple I / ΔE2^0 (E^0Y − E^0H), couple II: relative to Y=H (Complex 1a)
Description: Electrochemical measurements. Electrochemical measurements were performed at room temperature after purging with nitrogen using 0.1 M tetrabutylammonium hexafluorophosphate (TBAP)/acetonitrile as supporting electrolyte. The working electrode was a glassy carbon (Atomergic Chemetal V25, geometric area of 0.35 cm^2) electrode and the counter electrode was platinum gauze. A nonaqueous Ag/AgNO3 (0.1 M in acetonitrile) reference electrode was contained in a separate compartment connected to the test solution via fine sintered glass disks. The ferrocenium/ferrocene couple was used as the internal standard. The redox properties of the gold(III) porphyrin complexes in non-aqueous medium (CH2Cl2 with 0.1 M nBu4NPF6) have been studied by cyclic voltammetry with glassy carbon and platinum as the working and counter electrodes, respectively. […] The effect of para-substitution on the electrochemical potentials has been examined by Hammett correlation analysis.

[6] = tested on: Human Hepatocellular Carcinoma (HepG2); assay: MTT cytotoxicity, HepG2; format: cell-based; conditions: growth inhibition
From the text: as §1, §2

[7] = tested on: Human Nasopharyngeal Carcinoma (SUNE1); assay: MTT cytotoxicity, SUNE1; format: cell-based; conditions: for IC50: MTT, growth inhibition
From the text: as §3

[8] = tested on: Human Cervix Epitheloid Carcinoma (HeLa); assay: MTT cytotoxicity, HeLa; format: cell-based; conditions: for IC50: MTT, growth inhibition
From the text: as §3

[9] = target: T1, HIV-1 reverse transcriptase (Human immunodeficiency virus type 1 group M subtype B, UniProt P04585); assay: HIV-1 reverse transcriptase activity, ELISA method; format: biochemical; conditions: drug concentration fixed at 6 μM
T1 construct: treatment of HIV-1 RT in Lysis buffer (2 ng, 128.7 μL) with Complex 1j
Description: HIV-1 reverse transcriptase activities were measured by an ELISA method (see Eberle et al, J. Virol. Methods, 40:347-356 (1992) performed by incubating the enzyme with digoxigenin-labeled deoxyuridin-5′-triphosphate (dUTP) and the biotin-labeled analogue during reverse transcription starting from the template/primer hybrid poly(A)•oligo(dT)15. After reverse transcription, the newly synthesized DNA was immobilized onto streptavidin-coated ELISA wells, and the incorporation of the dioxigenin-labeled dUTP was assayed by chemiluminescence method. For example, treatment of HIV-1 RT in Lysis buffer (2 ng, 128.7 μL) with Complex 1j (1.3 μL of […] stock solution) dissolved in TBS at 37° C. produced significant RT activity inhibition (˜95%) after 30 min incubation.

[10] = tested on: human cancer cell lines (HL-60, HepG2, HeLa, KB-3-1, KB-V1, SUNE1, CNE1); format: cell-based; conditions: killing oral epidermoid and nasopharyngeal cancer cells
From the text: as §1, with “Cell Proliferation Kit I (MTT) was purchased from Roche (Mannheim, Germany).” left out
The anti-cancer activities of the gold(III) porphyrin complexes were evaluated toward some established human cancer cell lines: promyelocytic leukemia (HL-60), hepatocellular carcinoma (HepG2), cervix epitheloid carcinoma (HeLa), epidermoid carcinoma (KB-3-1) and its multi-drug resistant variant (KB-V1), nasopharyngeal carcinoma (SUNE1) and its cisplatin-resistant variant (CNE1). […]

[11] = Control UV-vis titration with sodium dodecyl sulfate instead of DNA; format: binding; conditions: sodium dodecyl sulfate (0-5 μM) instead of DNA
From the text: See Neidle, S. DNA structure and recognition; Oxford University Press: Oxford, 1994; 74-79.

calf thymus DNA = assay: UV-vis absorption titration with calf thymus DNA; format: binding; conditions: for hypochromicity / intrinsic binding constant (Kb): Tris buffer
Description: The calf thymus DNA was purchased from Sigma-Aldrich Chemical Co. and was purified by phenol-chloroform extraction. The DNA was dissolved in buffer (5 mM Tris, 5 mM NaCl, pH 7.2). The concentration (per base pair) of calf thymus DNA was determined spectrophotometrically on the basic of ε260, 13,200 M^−1cm^−1bp.
Absorption Titration. The binding interaction of the gold(III) porphyrins to duplex DNA has been studied by UV-vis spectroscopy.
where [ctDNA] is the concentration of DNA, Δεap═|εA−εB| in which εA=Aobs/[complex], and Δε=|εB−εF|. εB and εF correspond to the extinction coefficient of DNA-bound gold(III) porphyrin and the free gold(III) porphyrins, respectively.
The effect of temperature on the intrinsic binding constants was investigated. Using the van't Hoff equation (2): […]

HeLa cells = assay: Flow cytometry annexin V/propidium iodide apoptosis assay; format: cell-based, human; conditions: after treatment (Complex 1a 6 and 15 h; straurosporine 15 h)
From the text: Flow cytometry: The gold(III) porphyrin-induced apoptosis of the HeLa cell line has been further examined by flow cytometry. During the early phase of apoptosis, cells lose the asymmetry of their membrane phospholipids, although the integrity of the cell membrane is maintained. A negatively charged phospholipid, named phosphatidylserine (PS), which is located in the inner part of the plasma membrane, becomes exposed to the cell surface. A phospholipid-binding protein, annexin V (green emissive upon binding), with high affinity binds preferentially to PS. Apoptotic cells therefore can be stained by annexin V before the dying cell changes its morphology and hydrolyzes its DNA. On the other hand, both DNA and the PS would be exposed for necrotic cells. In this case, propidium iodide (PI, red emissive upon binding), can be used to stain selectively the naked DNA. Therefore, both apoptotic and necrotic cells can be discriminated after adding these two staining reagents. For apoptotic cells, only annexin V would stain; for necrotic cells, both annexin V and PI would stain.
For comparison, a control cell culture experiment was performed in the absence of Complex 1a and straurosporine. […] Throughout the flow cytometric experiment, <1% of necrotic cells were observed.

Row | Compound | IC50 [1] [nM] | IC50 ratio [cisplatin/gold (III) porphyrin complexes] CNE1 [2] | IC50 [2] [nM] | IC50 ratio [cisplatin/gold (III) porphyrin complexes] KB-3-1 [3] | IC50 [3] [nM] | IC50 ratio [cisplatin/gold (III) porphyrin complexes] KB-V1 [4] | IC50 [4] [nM] | Couple I (first reduction couple) [5] [V] | Couple II (second reduction couple) [5] [V] | ΔE1o (E^0Y − E^0H), couple I [5] | ΔE2^0 (E^0Y − E^0H), couple II [5] | IC50 [6] [nM] | IC50 ratio [cisplatin/gold (III) porphyrin complexes] SUNE1 [7] | IC50 [7] [nM] | IC50 ratio [cisplatin/gold (III) porphyrin complexes] HeLa [8] | IC50 [8] [nM] | further results
1 | Brc1ccc(-c2c3nc(c(-c4ccc(Br)cc4)c4ccc([n-]4)c(-c4ccc(Br)cc4)c4nc(c(-c5ccc(Br)cc5)c5ccc2[n-]5)C=C4)C=C3)cc1.[Au+3].[Cl-] [Complex 1d] | 1120 | 41.6 | 980 | 10.23 | 1290 | 8.96 | 640 | −0.97 | −1.45 | +0.03 V | +0.03 V | 1210 | 17.0 | 740 | 12.6 | 890 | 
2 | [Au+3].[Cl-].[Cl-].[Cl-].[Cl-].[K+] [KAu^IIICl4, reference compound] |  |  |  |  |  |  |  |  |  |  |  |  |  |  |  |  | HIV-1 RT inhibition [9]: 48%; times less potent than Complex 1a [10]: about 40 times
3 | Fc1c(F)c(F)c(-c2c3nc(c(-c4c(F)c(F)c(F)c(F)c4F)c4ccc([n-]4)c(-c4c(F)c(F)c(F)c(F)c4F)c4nc(c(-c5c(F)c(F)c(F)c(F)c5F)c5ccc2[n-]5)C=C4)C=C3)c(F)c1F.[Au+3].[Cl-] [Complex 1g] | 1450 | 28.1 | 1450 |  |  |  |  |  |  |  |  | 2310 | 5.97 | 2110 | 3.52 | 3180 | bathochromic shift [11]: 6 nm; hypochromicity of the Soret band [11]: 48%; hypochromicity (calf thymus DNA; 291.8 K): 18.2%; intrinsic binding constant (Kb) (calf thymus DNA; 291.8 K): 0.73 × 10^6 dm^3mol^−1; hypochromicity (calf thymus DNA; 297.6 K): 18.0%; intrinsic binding constant (Kb) (calf thymus DNA; 297.6 K): 0.58 × 10^6 dm^3mol^−1; hypochromicity (calf thymus DNA; 301.4 K): 16.5%; intrinsic binding constant (Kb) (calf thymus DNA; 301.4 K): 0.47 × 10^6 dm^3mol^−1; hypochromicity (calf thymus DNA; 306.1 K): 10.1%; intrinsic binding constant (Kb) (calf thymus DNA; 306.1 K): 0.42 × 10^6 dm^3mol^−1; hypochromicity (calf thymus DNA; 311.7 K): 8.7%; intrinsic binding constant (Kb) (calf thymus DNA; 311.7 K): 0.34 × 10^6 dm^3mol^−1; ΔH° (calf thymus DNA; binding to calf thymus DNA, van't Hoff analysis): −7.0 ± 0.4 kcalmol^−1; ΔG° (298 K) (calf thymus DNA; binding to calf thymus DNA, van't Hoff analysis, 298 K): −7.8 ± 0.5
4 | Clc1ccc(-c2c3nc(c(-c4ccc(Cl)cc4)c4ccc([n-]4)c(-c4ccc(Cl)cc4)c4nc(c(-c5ccc(Cl)cc5)c5ccc2[n-]5)C=C4)C=C3)cc1.[Au+3].[Cl-] [Complex 1e] | 870 | 99.5 | 410 | 26.4 | 500 | 20.4 | 230 | −0.96 | −1.44 | +0.44 V | +0.44 V | 920 | 37.1 | 340 | 16.2 | 690 | 
5 | CN[C@@H]1C[C@H]2O[C@@](C)([C@@H]1OC)n1c3ccccc3c3c4c(c5c6ccccc6n2c5c31)C(=O)NC4 [straurosporine, reference compound] |  |  |  |  |  |  |  |  |  |  |  |  |  |  |  |  | annexin V emission (HeLa cells): the magnitude of the annexin V emission was enhanced
